Reference: US6423855B1, “Cytoprotective compounds” (Virginia Commonwealth University, priority 1996, dated 2002)
Converted amounts (≈) assume the structure as drawn. “Also recorded” adds a separate entry of the source. Where two headings read alike, the source gives them in different places.

Experiments:
human blood cells = assay: preservation of whole blood (LDH and hemoglobin release); format: cell-based; conditions: 20 uM
Procedure: The effect of PX-13 and mepacrine on whole blood cell viability were tested as a function of time of storage.
Heparinized human blood was centrifuged at 400×g and the resulting plasma was removed and replaced with an equal volume of Dulbecco's medium. The resuspended cells were then incubated at 37° C. for 0-72 hrs. in a shaking water bath. At the indicated times, a 0.8 ml aliquot was removed and centrifuged at 400×g to sediment cells. Appearance of lactate dehydrogenase (LDH) and hemoglobin in the supernate was indicative of cell injury. PX-13 and mepacrine stabilized cells and decreased the injury as evidenced by diminished levels of LDH and hemoglobin in the supernate. This is expressed as percent protection.

small bowel graft = assay: small bowel transplantation ischemia-reperfusion injury; format: in vivo, rat
Procedure: (§1) These drugs were also tested for their ability to enhance the preservation of tissues stored for subsequent transplantation. The small bowel was removed from rats, washed free of luminal contents and the tissue stored in University of Wisconsin (UW) preservative media ±40 uM PX-13 or mepacrine for 48 hrs. The graft was then transplanted into rats with or without intravenous (IV) infusion of 20 mg/kg PX-13 or mepacrine at the time of transplantation.

[1] = system: PLA2 activity in extracts of rat bowel; assay: PLA2 activity in extracts of rat bowel; format: biochemical
[2] = system: larval forms of an animal filarid; assay: molting of larval forms of a filarid
Text: Infections caused by parasites constitute a major public health problem throughout the world for humans and animals, annually resulting in significant incidence of disease, suffering and death. Parasites such as those that cause malaria and other protozoal parasites of animals and humans are especially troublesome.

[3] = small bowel storage in perfusate solution, tissue weight; parameters: species or system rat; conditions: 24 and 48 hours in the perfusate solution
Procedure: These drugs were also tested for their ability to enhance the preservation of tissues stored for subsequent transplantation. […] The graft was then transplanted into rats with or without intravenous (IV) infusion of 20 mg/kg PX-13 or mepacrine at the time of transplantation.

[4] = peroxidation (malondialdehyde formation) of homogenized rat bowel
Procedure: as §1, with “of transplantation. Upon transplantation, the bowel is immediately injured as evidenced by tissue darkening within two minutes. […] Both PX-13 and mepacrine inhibit the peroxidation (malondialdehyde formation) of homogenized rat bowel, an indication that the membrane-stabilizing, PLA2-inhibitors, also have anti-oxidant activity.” for “of transplantation.”

[5] = system: lipoxygenase and cyclooxygenase; assay: lipoxygenase and cyclooxygenase metabolites with exogenous arachidonic acid; format: cell-based; conditions: exogenous arachidonic acid added
Text: The comparison is to MK 592, a selective lipoxygenase inhibitor.

[6] = target: T1, purified human disc type II, PLA2 (Homo sapiens, UniProt P14555); assay: inhibition of purified human disc type II PLA2; format: biochemical
T1 construct: the purified human disc type II, PLA2; from tissue; host or cells: human vertebral (herniated) disc
T1 sequence (P14555 21-144): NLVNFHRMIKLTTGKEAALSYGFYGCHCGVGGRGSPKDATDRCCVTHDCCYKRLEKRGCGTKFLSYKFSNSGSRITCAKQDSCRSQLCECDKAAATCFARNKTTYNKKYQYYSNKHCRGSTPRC
Procedure: Both PX-13 and PX-18 inhibit the purified human disc type II, PLA2. PLA2 activity was measured as described in Franson et al., Prostaglandins, Leukotrienes and Essential Fatty Acids, 43:63-70, 1991, which is herein incorporated by reference in its entirety.

cyclooxygenase II = assay: whole blood eicosanoid release, LPS induction; format: cell-based, human; conditions: 5 ug/ml E. coli LPS, 6 hours, 37° C.
Procedure: (§2) The following protocol was employed to evaluate effects of PX-18 on production of leukotrienes and prostaglandins by blood cells under basal conditions, with ionophore stimulation of cyclooxygenase type I, and with lipopolysaccharide (LPS) induction of cyclooxygenase type II. Freshly-obtained heparinized blood from medication-free donors is diluted 1:1 with RPMI, and aliquoted in 0.6 ml amounts in sterile polypropylene 12×75 […] tubes. Test drugs are added at appropriate concentrations and diluted in saline with 1% human serum albumin. Control tubes have only diluent or drug vehicle added. Drugs are added five minutes prior to addition of stimulus, at 100×concentrations, (6 μl volumes). This is replicated for 3 racks of tubes, A thru C. A has no stimulus added, and has a 30 minute and 6 hr. tube for each drug concentration. B has 20 uM of the calcium ionophore A23187 added, and is incubated at 37° C. for 30 minutes. C has 5 ug/ml of E. coli strain Bort LPS added, and is incubated at 37° C. for 6 hours. At the end each time period, the appropriate tubes are placed on ice, centrifuged, and 0.4 ml of plasma carefully decanted into a tube containing formic acid and BHT to stop all reactions and preserve eicosanoid products. These tubes are then frozen at −70° C. for up to one week, then applied to Sep-pac mini columns and extracted into methanol. […]

cyclooxygenase I = assay: whole blood eicosanoid release, ionophore stimulation; format: cell-based, human; conditions: 20 uM A23187, 30 minutes
Procedure: as §2

pancreatin = assay: degradation in vitro by pancreatin; format: in vitro ADME; conditions: commercial pancreatic enzyme preparation (Sigma)
Text: The compounds of the present invention are not generally hydrolyzed by pancreatic enzymes and are different from glycerol-based compounds in terms of their chemistry and metabolism. […] The resistance of PX-13 and PX-18 to metabolism by pancreatic enzymes supports their stability after oral administration.

[7] = system: basal production of prostaglandins; assay: whole blood eicosanoid release, basal; format: cell-based, human; conditions: no stimulus
Procedure: as §2

[8] = system: drug-resistant P. falciparum strains; assay: growth of the same drug-resistant P. falciparum strains (PX-18); format: cell-based, Plasmodium falciparum; conditions: for IC50: two strains as described above, which value for which strain not stated
basophils = assay: histamine release from basophils (anti-human IgE, diluted blood); format: cell-based
Procedure: The protocol to evaluate the effects of PX-18 on histamine release is described below. Freshly drawn heparinized blood from donors non-medicated for 3 days is diluted 1:5 with PBS containing 1% human serum albumin (diluent). Test drugs are diluted in diluent to 10 times final concentration, and 25 μl per well is added to duplicate wells of round-bottomed microtiter plates. Generally 3-fold dilutions of drug are examined four or five times. 200 μl of diluted blood is then added to each well. 5 minutes later, […] of rabbit anti-human IgE (purchased from Dako) is added per well, to give final concentrations of 1/400 and 1/1200 of antibody. Unstimulated (background release wells) have 25 μl of diluent added. Plates are gently tapped for mixing, then incubated for 30 minutes. After incubation, plates are cooled on ice, spun down in a refrigerated centrifuge, and replaced on ice. 100 μl plasma is removed from each well for assay, and placed in a 1.5 ml Eppendorf tube containing acetylation reagent. Following acetylation, the histamine adduct is quantitated by a sensitive and specific commercial competitive assay, utilizing the competition of enzyme conjugated acetyl-histamine with sample analyte for binding to a specific antibody on the solid phase. A sample of blood is also lysed by repeated freeze/thaw to determine total blood histamine. Results are expressed as a percentage of total blood histamine release. In an acceptable assay maximal release is greater than 45% and background release is less than 15%. Experiments are performed in duplicate or triplicate using separate blood donors.

[9] = system: lipoxygenase products such as LTC4; assay: whole blood production of lipoxygenase products; format: cell-based, human; conditions: comparison to MK 592
Procedure: as §2

Question: What does the source list for `CCN(CC)CCCC(C)Nc1c2ccc(Cl)cc2nc2ccc(OC)cc12` (centres unmarked) [mepacrine, reference compound]?
Answer: Percent Protection Hemoglobin (human blood cells; 48 hr): 61%; Percent Protection LDH (human blood cells; 48 hr, 37° C.): 58%; Percent Protection Hemoglobin (human blood cells; 72 hr): 45%; Percent Protection LDH (human blood cells; 72 hr): 27%; gross and microscopic injury to tissue (small bowel graft; 40 uM in UW media 48 hrs, with or without 20 mg/kg IV at transplantation): dramatically reduced; protection against ischemia and reperfusion injury (small bowel graft; small bowel transplantation): protect; also recorded: some protection although not as great as with PX-13; inhibition of PLA2 activity [1]: inhibited; molting of larval forms [2]: significantly reduced; weight of the tissues after storage [3]: reduced weight; peroxidation (malondialdehyde formation) [4]: inhibit

Question: Which “production of lipoxygenase and cyclooxygenase metabolites” value [5] does the source give for `CCCCCCCC/C=C\CCCCCCCC(=O)OCCN(CCOC(=O)CCCCCCC/C=C\CCCCCCCC)CCS(=O)(=O)O` [PX-18, 2-[N,N-Bis(2-oleoyloxyethyl)amino]-1-ethanesulfonic acid] here?
Answer: The value was “does not inhibit”.

Question: And the IC50 [6]?
Answer: The IC50 was 300 nM.

Question: And the “inhibition of cytokine-inducible cyclooxygenase II” value (cyclooxygenase II)?
Answer: The value was “strongly inhibit”.

Question: And the “inhibition of constitutive cyclooxygenase I” value (cyclooxygenase I)?
Answer: Its value is “less inhibition”.

Question: And the “degradation in vitro by pancreatin” value (pancreatin)?
Answer: Its value is “resistant to degradation”.

Question: What about the “inhibition of basal production of prostaglandins” value [7] of the same molecule?
Answer: The value was “even less or no inhibition”.

Question: And the “effectiveness relative to PX-13” value [8]?
Answer: The value was 10 times.

Question: What about the IC50 ([8]; Plasmodium falciparum, read-out: IC50) of the same molecule?
Answer: Its IC50 is 1.3 µg/mL (≈ 1.75 µM).

Question: What about the IC50 [8] of the same molecule?
Answer: The IC50 was 2.4 µg/mL (≈ 3.23 µM).

Question: What about the “efficacy relative to cromolyn” value (basophils) of the same molecule?
Answer: The value was “more efficacious than cromolyn”.

Question: And the “potency relative to epinephrine” value (basophils)?
Answer: The value was “equipotent to epinephrine”.

Question: What about the degranulation of basophils (basophils; stimulus antibody to surface-bound IgE) of the same molecule?
Answer: Its degranulation of basophils is “inhibits”.

Question: And the “production of lipoxygenase products such as LTC4” value [9]?
Answer: Its value is “inhibited”.
